# Where two headings read alike, the source gives them in different places.
# How the values were obtained:
# Jurkat cell line = assay: in vitro toxicity study, cytotoxicity (Jurkat cell); format: cell-based
# [1] = test system: human peripheral blood lymphocyte (PBL) proliferation; format: cell-based
Molecule,Cytotoxicity (Jurkat cell) IC50 (Jurkat cell line) [µg/mL],IC50 [1] [µg/mL],Cytotoxicity (Jurkat cell) IC50 (Jurkat cell line; values are extrapolated) [µg/mL]
[Cl-].[Cl-].c1c[n+]([Ru-4]([n+]2cc[nH]c2)([n+]2cc[nH]c2)([n+]2cc[nH]c2)([n+]2cc[nH]c2)[n+]2cc[nH]c2)c[nH]1 [Ru(Im)6 !Cl2],200,0.0067 ± 0.003,
Cn1cc[n+]([Ru-4]([n+]2ccn(C)c2)([n+]2ccn(C)c2)([n+]2ccn(C)c2)([n+]2ccn(C)c2)[n+]2ccn(C)c2)c1.[Cl-].[Cl-] [Ru(1-MeIm)6 !Cl2],2000,0.052 ± 0.03,
Cn1cc[n+]([Ru-3]([n+]2ccn(C)c2)([n+]2ccn(C)c2)([n+]2ccn(C)c2)([n+]2ccn(C)c2)[n+]2ccn(C)c2)c1.F[P-](F)(F)(F)(F)F.F[P-](F)(F)(F)(F)F.F[P-](F)(F)(F)(F)F [Ru(1-MeIm)6 !(PF6)3],115,0.19 ± 0.16,
[Cl-].[Cl-].[Cl-].c1c[n+]([Ru-3]([n+]2cc[nH]c2)([n+]2cc[nH]c2)([n+]2cc[nH]c2)([n+]2cc[nH]c2)[n+]2cc[nH]c2)c[nH]1 [Ru(Im)6 !Cl3],,0.005 ± 0.004,530
Cn1cc[n+]([Ru-3]([n+]2ccn(C)c2)([n+]2ccn(C)c2)([n+]2ccn(C)c2)([n+]2ccn(C)c2)[n+]2ccn(C)c2)c1.[Cl-].[Cl-].[Cl-] [Ru(1-MeIm)6 !Cl3],> 300,0.12 ± 0.1,
Ru(4-MeIm)6 !Cl2,,0.09 ± 0.07,1040
